Patent US20250250298A1, “ONCOLYTIC PEPTIDE AND USE THEREOF” (Rise Biopharmaceuticals Inc., priority 2022, published 2025)
Where a SMILES comes first, the peptide text is derived from it.

Columns and labels:
[1] = test system: HFW (Human fibroblast); experiment: MTT cytotoxicity, HFW; assay type: cell-based; settings: 24 hours incubation
Excerpt: (§1) The MTT assay is a colorimetric method for measuring the activity of enzymes in living cells that reduces Thiazolyl blue tetrazolium bromide (MTT) to formazan dyes showing a purple color. In this embodiment, a colorimetric 3-(4.5-dimethylthiazol-2-yl)-2.5-diphenyltetrazodium bromide (MTT) viability assay was used to assess the in vitro cytotoxicity of oncolytic peptides.
(§2) The half inhibition concentration (IC50) is the concentration required by the oncolytic peptides to reach fifty percent inhibition. In one embodiment, the oncolytic peptides were used for IC50 test via MTT colorimetric assay.
(§3) Human lung cancer lines PC9 and A549 and murine pancreatic cancer cell line Panc02 were cultured in RPMI medium supplemented with 10% fetal bovine serum and antibiotic in this embodiment. Additionally, murine hepatoma cell line Hepa 1-6, murine melanoma cell line B16-F10, murine fibrosarcoma cell line MN-11, murine mammary cancer cell line E0771 and human diploid fibroblast (HFW) were cultured in DMEM medium supplemented with 10% fetal bovine serum and antibiotic. Cells were cultured in a humidified incubator containing 5% CO2 at 37° C.
(§4) All cancer cell lines were seeded in a 96-well plate with a concentration of 5000-8000 cells/100 μl/well and incubated for 24 hrs. After medium was removed, 100 μl fresh medium containing peptide (ranging from 50 μM to 0.8 μM) was added to the wells. Following 24 hours incubation, fresh medium with MTT (0.5 mg/ml) was replaced and incubated for 3 hours. After medium/MTT was removed, DMSO was added at 100 μl for dissolving the formazan crystal. Cell survival rate was calculated by measuring the absorbance at 540 nm using a Multi-labeled Microplate Reader (Sunrise™, TECAN).

[2] = test system: HUVEC (Human Umbilical Vein Endothelial (Cell)); experiment: MTT cytotoxicity, HUVEC; assay type: cell-based; settings: 24 hours incubation
Excerpt: as §1, §2, §4

[3] = test system: EO771 (Murine mammary adenocarcinoma); experiment: MTT cytotoxicity, EO771; assay type: cell-based; settings: EO771, 24 hours incubation
Excerpt: as §1, §2, §3, §4

[4] = test system: Hepa I-6 (Murine hepatocellular carcinoma); experiment: MTT cytotoxicity, Hepa 1-6; assay type: cell-based; settings: Hepa I-6, 24 hours incubation
Excerpt: as §1, §2, §3, §4

[5] = test system: B16-F10 (Murine skin malignant melanoma); experiment: MTT cytotoxicity, B16-F10; assay type: cell-based; settings: B16-F10, 24 hours incubation
Excerpt: as §1, §2, §3, §4

[6] = test system: MN-11 (Murine fibrosarcoma); experiment: MTT cytotoxicity, MN-11; assay type: cell-based; settings: MN-11, 24 hours incubation
Excerpt: as §1, §2, §3, §4

[7] = test system: Panc02; experiment: MTT cytotoxicity, Panc02; assay type: cell-based, murine; settings: Panc02, 24 hours incubation
Excerpt: as §1, §2, §3, §4

[8] = test system: PC9 (Human non-small cell lung cancer cell); experiment: MTT cytotoxicity, PC9; assay type: cell-based; settings: PC9, 24 hours incubation
Excerpt: as §1, §2, §3, §4

[9] = test system: A549 (Human non-small cell lung cancer cell); experiment: MTT cytotoxicity, A549; assay type: cell-based; settings: A549, 24 hours incubation
Excerpt: as §1, §2, §3, §4

[10] = test system: C9 (Human oral cancer cell); experiment: MTT cytotoxicity, C9; assay type: cell-based; settings: C9, 24 hours incubation
Excerpt: as §1, §2, §4

[11] = test system: OECM-1 (Human oral cancer cell); experiment: MTT cytotoxicity, OECM-1; assay type: cell-based; settings: OECM-1, 24 hours incubation
Excerpt: as §1, §2, §4

[12] = test system: SAS (Human tongue carcinoma); experiment: MTT cytotoxicity, SAS; assay type: cell-based; settings: 24 hours incubation
Excerpt: as §1, §2, §4

[13] = test system: HepG2 Cancer Cells (Human hepatocellular carcinoma); experiment: MTT cytotoxicity, HepG2; assay type: cell-based; settings: HepG2, 24 hours incubation
Excerpt: as §1, §2, §4

[14] = test system: NCI-N87 (Human gastric carcinoma); experiment: MTT cytotoxicity, NCI-N87; assay type: cell-based; settings: NCI-N87, 24 hours incubation
Excerpt: as §1, §2, §4

[15] = test system: HCT-15 (Human colorectal cancer); experiment: MTT cytotoxicity, HCT-15; assay type: cell-based; settings: HCT-15, 24 hours incubation
Excerpt: as §1, §2, §4

[16] = test system: A375 (human malignant melanoma); experiment: MTT cytotoxicity, A375; assay type: cell-based; settings: A375, 24 hours incubation
Excerpt: as §1, §2, §4

[17] = test system: RBC (Human blood cell); experiment: Cytotoxicity, RBC; assay type: cell-based
Excerpt: as §2

Compound | IC50 [1] [µM] | IC50 [2] [µM] | IC50 [3] [µM] | IC50 [4] [µM] | IC50 [5] [µM] | IC50 [6] [µM] | IC50 [7] [µM] | IC50 [8] [µM] | IC50 [9] [µM] | IC50 [10] [µM] | IC50 [11] [µM] | IC50 [12] [µM] | IC50 [13] [µM] | IC50 [14] [µM] | IC50 [15] [µM] | IC50 [16] [µM] | IC50 [17] [µM]
CC(C)C[C@H](NC(=O)[C@H](Cc1ccc2ccccc2c1)NC(=O)[C@H](CCCCN)NC(=O)[C@H](CC(C)C)NC(=O)[C@H](Cc1c[nH]c2ccccc12)NC(=O)[C@H](CCCCN)NC(=O)[C@H](CCCNC(=N)N)NC(=O)[C@H](Cc1c[nH]c2ccccc12)NC(=O)[C@H](CCCCN)NC(=O)[C@H](CCCCN)NC(=O)[C@H](CCCCN)NC(=O)[C@H](CCCCN)NC(=O)[C@H](CCCCN)NC(=O)[C@H](CCCCN)NC(=O)[C@H](CCCCN)NC(=O)[C@@H](N)CCCCN)C(=O)N[C@@H](C)C(=O)N[C@@H](CCCCN)C(=O)N[C@@H](CCCCN)C(N)=O [SEQ ID NO: 2, KKKK-KK-KK-WRK-WLK-Nal-LA-KK-NH2] (HELM PEPTIDE1{K.K.K.K.K.K.K.K.W.R.K.W.L.K.[O=C([C@H](Cc1ccc2ccccc2c1)N[*:1])[*:2]].L.A.K.K.[am]}$$$$V2.0; N-terminus assumed) | 11 | 9.03 | 10.1 | 8.5 | 13.7 | 13.4 | 7.17 | 4.36 | 6.34 | 16 | 15.5 | 15.8 | 11 | 8.58 | 6.6 | 5.59 | 45
CC(C)C[C@H](NC(=O)[C@H](Cc1ccc2ccccc2c1)NC(=O)[C@H](CCCCN)NC(=O)[C@H](CC(C)C)NC(=O)[C@H](Cc1c[nH]c2ccccc12)NC(=O)[C@H](CCCCN)NC(=O)[C@H](CCCNC(=N)N)NC(=O)[C@H](Cc1c[nH]c2ccccc12)NC(=O)[C@H](CCCCN)NC(=O)[C@H](CCCCN)NC(=O)[C@H](CCCCN)NC(=O)[C@H](CCCCN)NC(=O)[C@H](CCCCN)NC(=O)[C@@H](N)CCCCN)C(=O)N[C@@H](C)C(=O)N[C@@H](CCCCN)C(N)=O [SEQ ID NO: 3, KKKK-KK-WRK-WLK-Nal-LAK-NH2] (HELM PEPTIDE1{K.K.K.K.K.K.W.R.K.W.L.K.[O=C([C@H](Cc1ccc2ccccc2c1)N[*:1])[*:2]].L.A.K.[am]}$$$$V2.0; N-terminus assumed) | 9.15 | 7.61 | 6.32 | 7.16 | 15.4 | 16.1 | 8.43 | 6.85 | 5.05 | 13.2 | 15.5 | 17.1 | 15.7 | 10.7 | 8.89 | 8.27 | 38.4
CC(C)C[C@H](NC(=O)[C@H](Cc1ccc2ccccc2c1)NC(=O)[C@H](CCCNC(=N)N)NC(=O)[C@H](CCCNC(=N)N)NC(=O)[C@H](CCCCN)NC(=O)[C@H](CCCCN)NC(=O)[C@H](CCCCN)NC(=O)[C@@H](N)CCCCN)C(=O)N[C@@H](C)C(=O)N[C@@H](CCCCN)C(N)=O [SEQ ID NO: 10, KKKK-RR-Nal-LAK-NH2] (HELM PEPTIDE1{K.K.K.K.R.R.[O=C([C@H](Cc1ccc2ccccc2c1)N[*:1])[*:2]].L.A.K.[am]}$$$$V2.0; N-terminus assumed) | 488 |  | 55.4 | 41.8 | 136 | 93.5 | 75.2 |  | 46.3 | 56.8 | 35.1 | 98.4 | 84.8 | 82.9 | 57.6 |  | 
